Results as given in publication PMC8196580, “Identification of Kaurane-Type Diterpenes as Inhibitors of Leishmania Pteridine Reductase I” (Molecules, 2021).
Like-named read-outs stand apart in the source and are kept apart here.

Experiments:
L. major [1] = assay: ChEMBL dataset of pIC50 values against L. major used for the RF model (Table S1); type: cell-based, Leishmania major; further: call rule not given here
L. major [2] = tested on: L. major; set-up: method as in ChEMBL; details: ref ChEMBL, cited from earlier work
[3] = Active/Inactive class assigned to ChemBL structures for Random forest model construction (Table S1)
[4] = ChemBL structures with pIC50 values used for Random forest model construction (Table S1)
[5] = Active/Inactive class assigned to the ChEMBL pIC50 value for Random forest model construction, ref ChEMBL
[6] = ChemBL structures with pIC50 values used for Random forest model construction, L. major

Structure (SMILES)	Outcome (L. major [1]; [3])	pIC50 Value (L. major [2]; [4])	Outcome (L. major [1]; [5])	pIC50 Value (L. major [2]; [6])
CC(=O)C1=C(CNc2ccc(C(=O)/C=C/c3ccc(N(C)C)cc3)cc2)N(C)C(=O)NC1c1ccccc1 (centres unmarked) [CHEMBL3787141]	Active	5.86	–	–
COc1cc(/C=N/NC(=O)c2ccccc2OC)cc(OC)c1 [CHEMBL2382053]	–	–	Inactive	4.27
COc1ccc(-c2ccc(C)cc2)c2c1C(C)=N[C@H](C)C2 [CHEMBL1278083]	–	–	Inactive	4.08
C[C@@H](c1ncncc1F)[C@](O)(Cn1cncn1)c1ccc(F)cc1F [CHEMBL638]	–	–	Active	5.21
COc1cc(OC)c2c(C)[n+](-c3c(C)cc(C)cc3C)c(C)cc2c1.F[B-](F)(F)F [CHEMBL480824]	Active	5.83	–	–
COc1ccc(/C=N/NC(N)=S)cc1OCc1cn(-c2ccc(C(=O)O)cc2)nn1 [CHEMBL4174032]	Active	5.30	–	–
CCN1CN(CC(=O)O)CSC1=S [CHEMBL4284377]	–	–	Inactive	4.48
COc1ccc(-c2ccc(OC)c3ccccc23)c2c1C=NCC2 [CHEMBL1277828]	–	–	Inactive	4.33
O=[N+]([O-])c1ccc(-c2nnc(N3CCCCC3)s2)s1 [CHEMBL191691]	–	–	Inactive	3.82
CCC(C)n1ncn(-c2ccc(N3CCN(c4ccc(OCC5COC(Cn6cncn6)(c6ccc(Cl)cc6Cl)O5)cc4)CC3)cc2)c1=O (centres unmarked) [CHEMBL64391]	Active	5.70	–	–
CC(C)(C)OC(=O)N1CCN(c2cc(-c3ccc(Oc4ccccc4)cc3)n[nH]2)CC1 [CHEMBL394241]	–	–	Inactive	4.89
CCCCCCN(C)c1ccc(Nc2c3ccc(Cl)cc3nc3ccc(OC)cc23)cc1 [CHEMBL315133]	Active	5.74	–	–
COc1cc(C)cc2c1C(=O)C=C(c1c(C)cc3ccc(O)c(OC)c3c1O)C2=O [CHEMBL2071226]	Active	9.74	–	–
COc1ccc(-c2ccc(OC)c3ccccc23)c2c1C=NC(C)(C)C2 [CHEMBL1277742]	–	–	Inactive	4.43
COc1cccc2c(-c3ccc4c(c3O)[C@@H](C)N[C@H](C)C4)c(C)cc(OC)c12 [CHEMBL410597]	–	–	Inactive	4.33
COc1ccc(CN2CN(CC(=O)O)CSC2=S)cc1OC [CHEMBL4291183]	–	–	Inactive	4.81

Structure (SMILES)	Outcome (L. major [1]; [3])	pIC50 Value (L. major [2]; [4])	Outcome (L. major [1]; [5])	pIC50 Value (L. major [2]; [6])
CCCCN1CN(CC(=O)OCC)CSC1=S [CHEMBL4294357]	–	–	Inactive	4.44
COc1ccccc1-c1nnc(-c2ccc(C(=O)N/N=C/c3cccc(F)c3)cc2)o1 [CHEMBL4072092]	–	–	Active	5.20
CCOC(=O)c1ccc(-c2c(-c3ccccc3)nc3ccccn23)cc1 [CHEMBL2151866]	–	–	Active	5.28
CCCCCNCc1ccc(Nc2c3ccccc3nc3ccccc23)cc1 [CHEMBL89683]	Active	5.70	–	–
O=[N+]([O-])c1ccc(-c2nnc(NCc3cn(Cc4ccccc4F)nn3)s2)o1 [CHEMBL1951523]	–	–	Inactive	4.72
O=[N+]([O-])c1ccc(-c2nnc(NCc3cn(Cc4ccc(Cl)c(Cl)c4)nn3)s2)o1 [CHEMBL1951535]	–	–	Inactive	3.88
Clc1ccc2c(c1)Nc1ccccc1O2 [CHEMBL1801896]	–	–	Inactive	4.16
Clc1ccc2c(N3CCN(Cc4ccc(-c5ccccc5)cc4)CC3)ccnc2c1 [CHEMBL1256766]	–	–	Inactive	4.49
c1ccc(-c2nc3cnccn3c2-c2ccccc2)cc1 [CHEMBL3634350]	–	–	Inactive	4.58
CN1CCN(c2nnc(-c3ccc([N+](=O)[O-])o3)s2)CC1 [CHEMBL372024]	–	–	Active	5.14
COc1ccccc1C(=O)N/N=C/c1cccs1 [CHEMBL2382043]	Active	5.60	–	–
O=C(c1ccc(Cl)cc1)N1CCN(c2nnc(-c3ccc([N+](=O)[O-])o3)s2)CC1 [CHEMBL458528]	–	–	Inactive	4.58
CN(C)c1nccn2c(-c3ccncc3)c(-c3ccccc3)nc12 [CHEMBL3634364]	–	–	Inactive	4.50
CN(C)CCNc1nccn2c(-c3ccncc3)c(-c3ccccc3)nc12 [CHEMBL3634363]	–	–	Inactive	4.16
C/C=C(\C)C(=O)NC1=CC[C@@]2(C)C(=CC[C@H]3[C@@H]4CC[C@H]([C@H](C)NC)[C@@]4(C)CC[C@@H]32)C1=O [CHEMBL525190]	–	–	Inactive	4.67
